Results from patent US7943358B2, “Polymerase enhancing factor (PEF) extracts, PEF protein complexes, isolated PEF protein, and methods for purifying and identifying” (Agilent Technologies, Inc., priority 1997, dated 2011).
Several values for one entry are separate records, joined by “and”; a condition that tells them apart may be missing. Identical values can stand only once.

How the values were obtained:
[1] = Heat treatment of dCTP at 95° C., reverse phase HPLC; format: physicochemical
Procedure: FIG. 18. Reverse phase HPLC analysis of the products generated by heat-treatment of dCTP. dCTP (10 mM in cloned Pfu DNA polymerase PCR buffer) was heated at 95° C. in thin-walled tubes in a RoboCycler 40 temperature gradient block. Incubations were carried out for the following length of time: 0 (panel A), 1 hour (panel 6), or 4 hours (panel C). 10 μl of the reaction mixtures were loaded onto a Waters Delta-pak C18 column (300 angstrom/15 μm), equilibrated in 50 mM triethylammonium acetate, pH (7.0) (A). Products were eluted with acetonitrile (B) at 2 ml/min., using the following gradient: 0% B for 5 minutes, 0-10% B over 20 minutes. Absorbence of the eluate was monitored with a photodiode array detector, and peak areas were integrated at 260 nm. To the right of panels A and C are shown the same chromatograms re-integrated at a higher sensitivity. In panel D, 10 μl of 10 mM dUTP (in cloned Pfu DNA polymerase PCR buffer) was chromatographed.
dUTP, however, is not intentionally added to PCR reactions but may be generated by spontaneous deamination of dCTP during the high temperatures used in PCR cycling (Jens-Peter Horst and Hans-Joachim Fritz. (1996) The EMBO Journal 15; 5459-5469). To assess the extent of dCTP deamination to dUTP during PCR, we incubated dCTP (10 mM) at 95° C. (PCR denaturation temperature) in the presence of cloned Pfu DNA polymerase PCR buffer. The products of heat treatment were analyzed by reverse phase-HPLC (as described above) and peak assignments were made by comparing retention times to those of standards. […] A minor peak at 12.38 minutes was also produced (0.049%/1 hr.; 0.116%/4 hr.), which was identified as dUTP, based upon its retention time (dUTP standard=12.10 minutes; panel D) and absorbence maximum.

[2] = PCR cycling of dCTP alone, HPLC; format: physicochemical; conditions: 30 cycles
Procedure: FIG. 20. Reverse phase HPLC analysis of the products generated by PCR cycling dCTP. dCTP (10 mM in cloned Pfu DNA polymerase PCR buffer) was cycled alone (Panel A) or in the presence of 0.5 ng/μl PEF (Panel 8) or 1.25 U/μl Pfu DNA polymerase (Panel C). Cycling was carried out in a RoboCycler 40 using the following conditions: 95° C. 1 min./30 cycles of: 95° C. 1 min., 60° C. 1 min., 72° C. 10:24 min./72° C. 10 min. 10 μl of the reaction mixtures were chromatographed as described in the FIG. 18 legend. In panel D, the absorbance spectra of dCTP, dUTP, and the product generated from PCR cycling dCTP are compared. The absorbance spectra (200-300 nm) of the following were superimposed: (1) major peak at 8.3-8.8 min. from chromatogram of dCTP+Pfu unheated; (2) peak at 11.867 min. from chromatogram of dUTP in buffer unheated; (3) peak 12.150 from chromatogram C (FIG. 20) showing dCTP+Pfu cycled.
dUTP production was also measured during PCR cycling. A dCTP solution (10 mM dCTP in cloned Pfu DNA polymerase PCR buffer) was subject to PCR cycling in a RoboCycler 40 using the cycling conditions described for the 5.2 kb “on/off” system (example 1). Products generated during PCR were analyzed by HPLC as described above. After 30 cycles, the following products were evident: 79% dCTP, 19% dCDP, 1.8% dCMP, and 0.064% dUTP (FIG. 20, panel A). […] When dCTP was cycled in the presence of Pfu DNA polymerase (50×PCR conditions, 10 mM dCTP and 1.25 U Pfu/μl reaction mix) there was no difference in the amount of dCDP, dCMP, or dUTP produced (FIG. 20, panel C). However, when dCTP was cycled in the presence of PEF (50×PCR conditions, 10 mM dCTP and 0.5 ng PEF/μl reaction mix), the following products were produced: 73% dCTP, 19% dCDP, and 8% dCMP (FIG. 20, panel B).

Pfu DNA polymerase [3] = target: T1, Pfu DNA polymerase (Pyrococcus furiosus, UniProt P61875); assay: 0.9 kb α1-antitrypsin PCR in absence or presence of dUTP; format: biochemical
T1 sequence (P61875 1-775): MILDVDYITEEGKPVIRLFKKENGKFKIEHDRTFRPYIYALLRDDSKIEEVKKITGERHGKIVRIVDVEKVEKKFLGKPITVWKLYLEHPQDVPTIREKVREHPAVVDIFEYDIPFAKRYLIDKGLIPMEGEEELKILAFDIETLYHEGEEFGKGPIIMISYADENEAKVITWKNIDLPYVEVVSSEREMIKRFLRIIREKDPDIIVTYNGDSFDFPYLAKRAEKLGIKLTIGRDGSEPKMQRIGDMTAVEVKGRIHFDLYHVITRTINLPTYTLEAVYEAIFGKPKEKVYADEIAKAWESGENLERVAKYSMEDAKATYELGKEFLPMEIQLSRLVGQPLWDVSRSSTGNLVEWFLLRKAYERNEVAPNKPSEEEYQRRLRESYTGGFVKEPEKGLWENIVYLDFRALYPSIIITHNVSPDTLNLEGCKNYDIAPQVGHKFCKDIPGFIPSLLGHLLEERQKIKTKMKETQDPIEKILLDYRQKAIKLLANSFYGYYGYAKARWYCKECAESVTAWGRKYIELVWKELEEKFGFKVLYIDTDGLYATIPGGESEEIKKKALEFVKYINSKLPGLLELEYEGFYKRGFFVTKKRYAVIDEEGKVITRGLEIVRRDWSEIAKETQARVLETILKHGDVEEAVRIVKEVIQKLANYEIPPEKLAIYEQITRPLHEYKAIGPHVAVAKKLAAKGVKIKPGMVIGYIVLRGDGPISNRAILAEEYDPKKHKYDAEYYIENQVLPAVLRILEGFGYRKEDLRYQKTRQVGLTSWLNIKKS
Procedure: A relatively small (0.9 kb) fragment of the human α1-antitrypsin gene was amplified in the absence or presence of dUTP. PCR reaction mixtures contained the following (in a 100 μl volume): 1× Cloned Pfu polymerase buffer; 200 μM each, dCTP, dGTP, dATP; 200 ng oligo F91-23 (100 ng/μl); 200 ng oligo R980-23 (100 ng/μl); 125 ng Human genomic DNA; 2.5 units Pfu DNA polymerase; 200 μM total of (dTTP and dUTP) or (dTTP+PEF generated dUMP).
PCR cycling was carried out as follows: 95° C. for 1 minute (1 cycle); 95° C. for 1 minute—58° C. for 1 minute—72° C. for 2 minutes (30 cycles).
Seven ng of PEF can reverse the inhibition caused by as much as 20 μM dUTP (data not shown). The preferred amount of PEF or P45 used in a particular reaction can be optimized according to the principles provided here or by methods for quantifying amplification reactions known in the art.

Pfu DNA polymerase [4] = target: T1, Pfu DNA polymerase; assay: 0.9 kb α1-antitrypsin PCR with unrelated dU-containing or control oligonucleotide; format: biochemical; conditions: per 100 ul reaction
[5] = Reverse phase HPLC analysis of dCTP conversion; format: biochemical
Procedure: The similarity of P45 to dCTP deaminases prompted us to test whether dCTP or other nucleotide triphosphates were substrates of PEF/P45. PEF was incubated with dCTP or dUTP and the reaction products were separated by reverse phase HPLC. Reaction mixtures (50 μl) containing 1× cloned Pfu polymerase buffer, 10 mM dCTP or dUTP, and 700 ng PEF (or 5 μl of cloned p45 (˜100 ng) or nothing (neg. control)) were incubated at 72° C. for 1 hour. The samples were injected on a […] Waters Delta-pak C-18 column (300 angstrom/15 μm), equilibrated in 50 mM triethylammonium acetate, pH (7.0) (A). Products were eluted with acetonitrile (B) at 2 ml/min. using the following gradient: 0% B for 5 minutes, 0-10% B over 20 minutes. Absorbence of the eluate was monitored with a photodiode array detector, and peak areas were integrated at 260 nm.

For `Nc1ccn([C@H]2C[C@H](O)[C@@H](COP(=O)(O)OP(=O)(O)OP(=O)(O)O)O2)c(=O)n1` [dCTP], the “dCMP formed from dCTP” value ([1]; 1 hr) was 2.8%, the “dUTP formed from dCTP (12.38 minute peak)” value ([1]; 1 hr) was 0.049% and the “dCDP formed from dCTP” value ([1]; 1 hr, 10 mM in cloned Pfu PCR buffer) was 22%. For the same molecule, the “dCDP formed from dCTP” value ([1]; 4 hr) was 41%, the “dCMP formed from dCTP” value ([1]; 4 hr) was 25% and the “dUTP formed from dCTP (12.38 minute peak)” value ([1]; 4 hr) was 0.116%. For the same molecule, the “dCDP after PCR cycling” value [2] was 19%, the “dCMP after PCR cycling” value [2] was 1.8% and the “dCTP after PCR cycling” value [2] was 79%. For the same molecule, the “dUTP after PCR cycling” value [2] was 0.064%.

With `O=c1ccn([C@H]2C[C@H](O)[C@@H](COP(=O)(O)O)O2)c(=O)[nH]1` [dUMP] the “inhibition of Pfu polymerase-based PCR” value (Pfu DNA polymerase [3]; at concentrations of 20 μM) was “not inhibitory”.

For `O=c1ccn([C@H]2C[C@H](O)[C@@H](COP(=O)(O)OP(=O)(O)OP(=O)(O)O)O2)c(=O)[nH]1` [dUTP, deoxyuracil triphosphate], the “dUTP concentration partially inhibiting amplification of the 900 bp product” value (Pfu DNA polymerase [3]; 0.1% of the dTTP+dUTP pool) was 0.2 µM and the “dUTP concentration completely inhibiting amplification of the 900 bp product” value (Pfu DNA polymerase [3]; as low as, 1% of the dTTP+dUTP pool) was 2 µM.

With “control oligonucleotide: control oligo with dT rather than dU (SEQ ID NO: 86) (GGTTTTCCCAGTCACGACGTTGTAAAACGACGGCCAGT; DNA, backbone not given here)” the “amount of oligo showing inhibition of the Pfu-based PCR” value (Pfu DNA polymerase [4]) was 16 pmol and 8 pmol.

With “dU oligo: unrelated primer complementary to M13 DNA containing 9 dUs instead of dTs (SEQ ID NO: 87) (GGUUUUCCCAGUCACGACGUUGUAAAACGACGGCCAGU; DNA, backbone, methylation of C and T or U not given here; further chemistry not fully specified)” the “amount of oligo showing inhibition of the Pfu-based PCR” value (Pfu DNA polymerase [4]) was 0.8 pmol.

B1: P45: 45 kD component of the Pfu PEF complex, functions as a dUTPase (SEQ ID NO.: 71) (protein, listed as Pyrococcus furiosus)
chain: MLLPDWKIRKEILIEPFSEESLQPAGYDLRVGREAFVKGKLIDVEKEGKVVIPPREYALILTLERIKLPDDVMGDMKIRSSLAREGVIGSFAWVDPGWDGNLTLMLYNASNEPVELRYGERFVQIAFIRLEGPARNPYRGNYQGSTRLAFSKRKKL
With B1 the “deamination of dCTP” value [5] was “No deamination”.
